Results: patent publication US20240255521A1, “Cilia Protein as Biomarkers and Methods of Use” (The Medical College of Wisconsin, Inc., priority 2021, published 2024)
Entries after “also recorded” stand apart in the source; their conditions may differ.

How the values were obtained:
[1] = system: HBMVECs; experiment: PMA-induced oxidative stress in HBMVECs with or without NOX inhibitor; ROS, HO-1 and cilia proteins by flow cytometry (MFI); assay type: cell-based, human
Procedure: Primary HBMVECs (Cell Systems Corporation catalog ACBRI 376) and HUVECs (Glyco Tech) were maintained at 37° C. in a 5% CO2 incubator in endothelial cell complete medium (Promocell, catalog C22010). As per vendor's description, cells were isolated from the cortex region of the brain from a pediatric donor. The cells were isolated without using antibody labeling to preserve the cells' natural properties for enhanced biological relevance. LL-CPK1 (CL101.1TM) porcine renal epithelial cells from proximal tubule were obtained from ATCC. All cell culture wells were seeded equally, and wells were randomized to control versus experimental conditions with duplicates or triplicates per condition. All experiments were performed between passages 4 and 6. Cells that had reached approximately 90% confluence were used in the shear stress experiment. For ROS quantification experiments, cells were treated with PMA (Sigma, catalog P8139-5MG) at a concentration of 50 ng/mL for 1 hour. To inhibit ROS production in respective experimental groups, cells were treated with 20 μM NOX inhibitor VAS 2870 (Sigma, catalog SML0273-5MG) 1 hour prior to PMA treatment.
Single-cell suspensions were washed 3 times with FACS buffer (1×PBS with 5% FBS and 0.1% NaN3) at 300 g for 5 minutes and were subsequently incubated with Live/Dead fixable yellow dead cell stain as per manufacturer's protocol, to exclude any dead cells, wherever applicable. Then, cells were fixed and permeabilized using Cytofix/Cytoperm buffer (BD, catalog 554722) or transcription factor buffer set (BD, catalog 562574) and stained for the following proteins: ARL13b, IFT88, Inversin, Dynein, γ-tubulin, Alk1, KLF4, HO-1, NRF2, and bACTIN. Suitable secondary reagents were used to detect the respective proteins. Primary antibodies were diluted 1:50, and secondary antibodies were diluted 1:500. BD perm wash buffer (catalog 554723) was used for antibody dilutions and washing. Primary antibodies were incubated for 45 minutes and secondaries for 30 minutes at 4° C. Suitable secondary antibody controls were included. To quantify total ROS, assay kit was used as per the manufacturer's instruction (Thermo Fisher Scientific, catalog 88-5930-74). After the completion of staining, cells were resuspended in FACS buffer. Stained cells were run on a flow cytometer (BD LSRFortessa). Sample acquisition was done using FACSDiva software (BD) with subsequent analysis on FlowJo software. To determine the presence of the ciliary protein ARL13b on human RBCs, unlabeled RBCs prior to infusion into the variable height flow chamber, and effluent containing RBCs collected postflow and RBCs postinteraction with brain ECs, were labeled with FITC-conjugated Arl13b antibody for 30 minutes on ice. RBCs were then washed and tested by flow cytometric analysis as previously described (49). To determine whether ROS generation in brain ECs can be increased by sickle RBCs and contributes to deciliation, slides coated with brain ECs were sham-treated or pretreated with the NOX inhibitor apocynin at 10 μM for 1 hour at 37° C., washed, and fitted into the flow chamber. Treated brain ECs were then exposed to unlabeled sickle RBCs for 10 minutes. Sickle RBCs were lysed with RBC lysis buffer and brain ECs scraped from the glass slide for testing for ROS levels using CM-H2-DCFDA (Invitrogen) as described previously in detail (50). One hundred thousand events per sample were acquired and tested by flow cytometric analysis. In separate experiments, and as described above, unlabeled sickle RBCs were tested by flow cytometry for ARL13b ciliary protein binding prior to infusion into the chamber (baseline levels) and postflow and once sickle RBCs interacted with brain ECs treated with 10 μM apocynin.

[2] = system: Human brain microvascular ECs; experiment: ROS generation in brain ECs exposed to sickle RBCs (CM-H2-DCFDA, flow cytometry); assay type: cell-based; conditions: brain ECs pretreated with apocynin 10 μM for 1 hour, then exposed to SS RBCs for 10 minutes; P<0.0001
Procedure: Single-cell suspensions were washed 3 times with FACS buffer (1×PBS with 5% FBS and 0.1% NaN3) at 300 g for 5 minutes and were subsequently incubated with Live/Dead fixable yellow dead cell stain as per manufacturer's protocol, to exclude any dead cells, wherever applicable. Then, cells were fixed and permeabilized using Cytofix/Cytoperm buffer (BD, catalog 554722) or transcription factor buffer set (BD, catalog 562574) and stained for the following proteins: ARL13b, IFT88, Inversin, Dynein, γ-tubulin, Alk1, KLF4, HO-1, NRF2, and bACTIN. Suitable secondary reagents were used to detect the respective proteins. Primary antibodies were diluted 1:50, and secondary antibodies were diluted 1:500. BD perm wash buffer (catalog 554723) was used for antibody dilutions and washing. Primary antibodies were incubated for 45 minutes and secondaries for 30 minutes at 4° C. Suitable secondary antibody controls were included. To quantify total ROS, assay kit was used as per the manufacturer's instruction (Thermo Fisher Scientific, catalog 88-5930-74). After the completion of staining, cells were resuspended in FACS buffer. Stained cells were run on a flow cytometer (BD LSRFortessa). Sample acquisition was done using FACSDiva software (BD) with subsequent analysis on FlowJo software. […]

[3] = system: ARL13b on SS RBCs; experiment: ARL13b bound to SS RBCs before and after flow chamber interaction with apocynin-pretreated brain ECs (flow cytometry); assay type: cell-based, human; conditions: ECs treated with 10 μM apocynin
Procedure: HBMVECs were cultured until they reached confluence on clear glass slides precoated with 2% gelatin. Slides coated with brain ECs were washed, then fit into a variable height flow chamber and tested for their ability to support adhesion of RBCs. The flow chamber was mounted on the stage of an inverted phase contrast microscope (Diaphot, Nikon Inc.) connected to a thermoplate (Tokai Hit Co., Ltd.) set at 37° C. Fluorescence-labeled RBCs suspended at 0.2% (v/v) in PBS with Ca^2+ and Mg^2+ were infused into the flow chamber and allowed to adhere to brain ECs for 10 minutes without flow. Before exposure to flow, a minimum of 3 fields at each of 7 different locations along a line oriented to future flow were examined, and the total number of fluorescent cells was counted. Fluid flow (PBS with Ca^2+ and Mg^2+) with a calibrated syringe pump was then started for a period of 15 minutes. Effluent was collected and tested by flow cytometry for cilia shedding from brain ECs by RBC contact. After exposure to flow, the fields were examined, and the number of fluorescent adherent RBCs to brain ECs was counted. The fraction of adherent cells was presented as number of cells attached per field after exposure to flow/total number of cells present per field before flow. […] To quantify total ROS, assay kit was used as per the manufacturer's instruction (Thermo Fisher Scientific, catalog 88-5930-74). […]

[4] = PMA 50 ng/mL for 1 hour vs untreated
[5] = 20 μM VAS2870 1 hour prior to PMA 50 ng/mL

Compound: CCCCCCCCCCCCCC(=O)O[C@@H]1[C@@H](C)[C@@]2(O)[C@@H](C=C(CO)C[C@]3(O)C(=O)C(C)=C[C@@H]23)[C@@H]2C(C)(C)[C@]12OC(C)=O [PMA]
- HO-1 levels [1, 4]: lower
- cilia-associated proteins NRF2, IFT88 and γ-tubulin levels [1, 4]: downregulated; also recorded: reduced; also recorded: decreased
- total ROS [1, 4]: induced ROS; also recorded: enhanced total ROS

Compound: c1ccc(Cn2nnc3c(Sc4nc5ccccc5o4)ncnc32)cc1 [VAS2870]
- HO-1 levels [1, 5]: restored to control levels
- cilia-associated proteins NRF2, IFT88 and γ-tubulin levels [1, 5]: rescued; also recorded: restored to baseline; also recorded: returned to baseline
- total ROS ([1]; 20 μM VAS2870 1 hour prior to PMA 50 ng/mL, vs PMA alone): partially attenuated; also recorded: quenched ROS production

Compound: COc1cc(C(C)=O)ccc1O [apocynin]
- ROS generation in ECs [2]: reduced ROS generation in ECs to baseline levels
- cilia protein expression on sickle RBCs exposed to apocynin-treated brain ECs (in words) [3]: decreased cilia protein expression
- ARL13b expression on SS RBCs after exposure to apocynin-treated brain ECs ([3]; before exposure SS RBCs showed approximately 35% ARL13b, P<0.05, n=6): approximately 20%
